Converted amounts (≈) assume the structure as drawn. Like-named read-outs stand apart in the source and are kept apart here.
Assays:
[1] = Solubility (phosphate buffer); format: physicochemical
human plasma = assay: prothrombin time (PT) clotting test; format: biochemical; settings: inhibitor concentration which brought about a doubling of the PT clotting time, Innovin (recombinant human tissue factor)
Method: The activity of the low molecular weight substances can, moreover, be characterized in the “prothrombi” time” (PT) clotting test. The substances are prepared as a 10 mM solution in DMSO or DMSO/0.1M HCl (DHCl) and thereafter made up to the desired dilution in the same solvent. Thereafter, 0.25 ml of human plasma (obtained from whole blood anticoagulated with 1/10 volume of 108 mM Na citrate) was placed in the instrument-specific sample container. In each case 5 μl of each dilution of the substance-dilution series was then mixed with the plasma provided. This plasma/inhibitor mixture was incubated at 37° C. for 2 minutes. Thereafter, there were pipetted to the semi-automatic device (ACL, Automated Coagulation Laboratory (Instrument Laboratory)) 50 μl of plasma/inhibitor mixture in the measurement container. The clotting reaction was initiated by the addition of 0.1 ml of Innovin® (recombinant human tissue factor combined with calcium buffer and synthetic phospholipids(Dade Behring®, Inc.). The time up to the fibrin cross-linking was determined photooptically from the ACL. The inhibitor concentration, which brought about a doubling of the PT clotting time, was determined by means of a graph.

SMILES	Solubility (phosphate buffer, pH 6.5) ([1]; pH 6.5)	concentration doubling PT clotting time (human plasma)	melting point	solubility ([1]; aqueous buffer, pH 5 (stated in the cell), read-out: Solubility (phosphate buffer, pH 5))	solubility ([1]; pH 6.5, aqueous buffer, read-out: Solubility (phosphate buffer, pH 6.5))
CCOc1cc(O[C@@H]2CCCN(C)C2)c(F)c([C@@H](Nc2ccc(C(=N)N)cc2)C(=O)O)c1 (racemic) [Example 2.3, (RS)- and (SR)-(4-carbamimidoyl-phenylamino)-[5-ethoxy-2-fluoro-3-[(RS)-1-methyl-piperidin-3-yloxy]-phenyl]-acetic acid]	2.2 mg/ml	2.1 µM	–	–	–
CCOc1cc(OCC2CCN(C)CC2)c(F)c(C(Nc2ccc(C(=N)N)cc2)C(=O)O)c1 (racemic) [Example 6.3, (RS)-(4-carbamimidoyl-phenylamino)-[5-ethoxy-2-fluoro-3-(1-methyl-piperidin-4-ylmethoxy)-phenyl]-acetic acid]	–	–	232 °C	–	–
CCOc1cc(OC2CCN(C)CC2)c(F)c(C(Nc2ccc(C(=N)N)cc2)C(=O)O)c1 (racemic) [Example 13.3, (RS)-(4-carbamimidoyl-phenylamino)-[5-ethoxy-2-fluoro-3-(1-methyl-piperidin-4-yloxy)-phenyl]-acetic acid]	–	3.6 µM	–	3.3 mg/mL (≈ 7.42 mM)	–
CCOc1cc(OC2CCN(C)CC2)c(F)c([C@@H](Nc2ccc(C(=N)N)cc2)C(=O)O)c1 [Example 13.8, (R)-(4-carbamimidoyl-phenylamino)-[5-ethoxy-2-fluoro-3-(1-methyl-piperidin-4-yloxy)-phenyl]-acetic acid]	–	1.6 µM	–	–	5.7 mg/mL (≈ 12.8 mM)

— US6642386B2, “N-(4-carbamimidoyl-phenyl)-glycine derivatives” (Hoffmann-La Roche Inc., priority 2002, dated 2003)
